In ChEMBL document CHEMBL3991601, “The target landscape of clinical kinase drugs” (Science, 2017):
Calls of active or inactive are those of the source. Cut-off read from the data, not from the text of the source, for most assays here: actives have a measured Kd and inactives only a lower limit.

Key:
Activin receptor type-1B = target: T1, Activin receptor type-1B (Homo sapiens, UniProt P36896)
T1 sequence (P36896 whole entry): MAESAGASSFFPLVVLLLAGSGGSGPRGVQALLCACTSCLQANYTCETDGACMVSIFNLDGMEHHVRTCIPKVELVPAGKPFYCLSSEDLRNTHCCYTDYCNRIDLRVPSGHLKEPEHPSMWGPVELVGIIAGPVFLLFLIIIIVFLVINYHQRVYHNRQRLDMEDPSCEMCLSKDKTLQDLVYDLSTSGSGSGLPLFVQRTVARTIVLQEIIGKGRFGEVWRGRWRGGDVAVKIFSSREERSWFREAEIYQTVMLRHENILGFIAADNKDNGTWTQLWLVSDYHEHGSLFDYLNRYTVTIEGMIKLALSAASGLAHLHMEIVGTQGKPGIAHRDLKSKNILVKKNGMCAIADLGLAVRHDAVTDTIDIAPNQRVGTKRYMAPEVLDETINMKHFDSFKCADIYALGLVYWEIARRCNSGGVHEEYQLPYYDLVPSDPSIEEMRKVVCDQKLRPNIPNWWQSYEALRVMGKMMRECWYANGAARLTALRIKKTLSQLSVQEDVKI

[1] = target: Tyrosine-protein kinase ABL1 (Homo sapiens, UniProt P00519)
Tyrosine-protein kinase ABL1, sequence (P00519 whole entry): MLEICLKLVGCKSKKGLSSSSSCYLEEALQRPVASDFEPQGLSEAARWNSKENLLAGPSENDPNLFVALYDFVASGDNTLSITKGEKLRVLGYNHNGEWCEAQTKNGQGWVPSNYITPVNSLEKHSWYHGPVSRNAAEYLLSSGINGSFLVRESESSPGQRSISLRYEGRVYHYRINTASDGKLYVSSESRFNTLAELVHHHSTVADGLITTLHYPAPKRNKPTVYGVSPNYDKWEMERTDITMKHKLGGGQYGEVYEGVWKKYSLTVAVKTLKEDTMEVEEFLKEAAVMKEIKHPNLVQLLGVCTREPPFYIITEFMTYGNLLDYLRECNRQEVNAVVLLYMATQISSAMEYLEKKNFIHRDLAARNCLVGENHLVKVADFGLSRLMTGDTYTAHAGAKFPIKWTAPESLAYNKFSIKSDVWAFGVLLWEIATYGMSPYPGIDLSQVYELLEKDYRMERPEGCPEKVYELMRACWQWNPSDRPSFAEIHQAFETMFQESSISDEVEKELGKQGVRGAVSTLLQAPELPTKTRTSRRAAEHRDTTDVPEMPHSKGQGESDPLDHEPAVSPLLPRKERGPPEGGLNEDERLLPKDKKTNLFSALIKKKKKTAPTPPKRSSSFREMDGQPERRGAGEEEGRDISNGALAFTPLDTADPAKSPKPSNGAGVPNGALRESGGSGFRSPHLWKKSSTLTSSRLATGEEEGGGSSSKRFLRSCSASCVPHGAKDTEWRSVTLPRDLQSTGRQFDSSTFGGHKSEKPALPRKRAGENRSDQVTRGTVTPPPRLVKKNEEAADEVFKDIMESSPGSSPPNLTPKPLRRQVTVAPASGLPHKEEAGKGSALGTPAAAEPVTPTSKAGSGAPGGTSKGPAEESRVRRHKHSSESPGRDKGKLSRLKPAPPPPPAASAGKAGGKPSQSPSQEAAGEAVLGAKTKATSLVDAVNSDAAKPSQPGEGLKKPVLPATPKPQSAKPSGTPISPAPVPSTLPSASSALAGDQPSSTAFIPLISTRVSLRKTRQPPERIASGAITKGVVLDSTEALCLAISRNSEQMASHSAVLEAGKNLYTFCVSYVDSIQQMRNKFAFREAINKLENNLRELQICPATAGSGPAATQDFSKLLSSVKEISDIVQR

[2] = target: Tyrosine-protein kinase CSK (Homo sapiens, UniProt P41240)
Wee1-like protein kinase = Wee1-like protein kinase (Homo sapiens, UniProt P30291)
Wee1-like protein kinase, sequence (P30291 whole entry): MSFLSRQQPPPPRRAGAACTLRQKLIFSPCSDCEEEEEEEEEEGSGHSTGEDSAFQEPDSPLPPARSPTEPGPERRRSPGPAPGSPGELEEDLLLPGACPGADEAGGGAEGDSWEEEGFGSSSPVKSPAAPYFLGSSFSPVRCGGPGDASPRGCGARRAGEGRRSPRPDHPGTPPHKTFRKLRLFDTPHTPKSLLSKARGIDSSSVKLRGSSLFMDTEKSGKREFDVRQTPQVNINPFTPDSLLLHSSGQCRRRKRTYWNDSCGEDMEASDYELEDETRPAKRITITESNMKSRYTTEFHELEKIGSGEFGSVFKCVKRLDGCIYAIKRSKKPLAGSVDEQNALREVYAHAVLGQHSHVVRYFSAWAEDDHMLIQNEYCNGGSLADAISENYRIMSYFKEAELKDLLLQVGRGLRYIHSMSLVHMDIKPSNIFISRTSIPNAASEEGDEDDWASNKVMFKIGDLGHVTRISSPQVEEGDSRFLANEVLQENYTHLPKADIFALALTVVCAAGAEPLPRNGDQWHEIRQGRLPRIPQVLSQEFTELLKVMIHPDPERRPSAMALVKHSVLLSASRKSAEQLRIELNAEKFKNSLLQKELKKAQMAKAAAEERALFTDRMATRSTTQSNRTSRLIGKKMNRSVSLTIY

[3] = target: Mitogen-activated protein kinase 9 (Homo sapiens, UniProt P45984)
Mitogen-activated protein kinase 9, sequence (P45984 whole entry): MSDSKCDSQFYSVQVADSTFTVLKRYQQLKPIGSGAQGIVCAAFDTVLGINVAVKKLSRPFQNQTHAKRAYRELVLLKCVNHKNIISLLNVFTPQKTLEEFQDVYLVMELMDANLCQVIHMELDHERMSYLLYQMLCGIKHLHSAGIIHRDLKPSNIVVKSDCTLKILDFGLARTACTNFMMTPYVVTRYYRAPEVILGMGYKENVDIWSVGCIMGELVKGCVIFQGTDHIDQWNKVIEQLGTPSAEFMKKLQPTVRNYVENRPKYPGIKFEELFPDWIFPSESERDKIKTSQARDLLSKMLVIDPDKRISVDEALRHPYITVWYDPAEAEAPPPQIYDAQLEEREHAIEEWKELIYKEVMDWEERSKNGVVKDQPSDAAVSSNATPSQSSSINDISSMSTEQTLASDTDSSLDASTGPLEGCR

[4] = target: T2, ATP-dependent RNA helicase DDX1 (Homo sapiens, UniProt Q92499)
T2 sequence (Q92499 whole entry): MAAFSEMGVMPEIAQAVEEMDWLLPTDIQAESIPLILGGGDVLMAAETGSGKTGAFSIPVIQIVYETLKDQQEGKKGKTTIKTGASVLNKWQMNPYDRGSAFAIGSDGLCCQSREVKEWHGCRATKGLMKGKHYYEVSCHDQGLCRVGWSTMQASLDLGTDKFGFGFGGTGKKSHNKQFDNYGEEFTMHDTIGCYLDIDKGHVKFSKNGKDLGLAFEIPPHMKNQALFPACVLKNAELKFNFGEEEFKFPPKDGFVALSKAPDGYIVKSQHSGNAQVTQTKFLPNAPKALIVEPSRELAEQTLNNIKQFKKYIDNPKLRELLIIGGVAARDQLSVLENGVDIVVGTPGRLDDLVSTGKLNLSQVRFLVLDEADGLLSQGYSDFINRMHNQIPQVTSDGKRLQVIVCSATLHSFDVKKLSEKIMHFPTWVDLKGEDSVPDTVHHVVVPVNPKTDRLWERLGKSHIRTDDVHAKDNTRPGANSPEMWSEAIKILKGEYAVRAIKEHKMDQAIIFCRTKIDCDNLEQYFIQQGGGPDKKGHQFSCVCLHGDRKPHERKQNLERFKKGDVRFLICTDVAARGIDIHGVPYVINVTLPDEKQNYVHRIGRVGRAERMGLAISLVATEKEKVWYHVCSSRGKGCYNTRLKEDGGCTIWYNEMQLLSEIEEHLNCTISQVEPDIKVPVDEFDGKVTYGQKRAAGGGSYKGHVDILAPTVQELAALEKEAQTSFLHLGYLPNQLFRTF

[5] = target: Adenylate kinase 2, mitochondrial (Homo sapiens, UniProt P54819)
[6] = target: Tyrosine-protein kinase HCK (Homo sapiens, UniProt P08631)
Tyrosine-protein kinase HCK, sequence (P08631 whole entry): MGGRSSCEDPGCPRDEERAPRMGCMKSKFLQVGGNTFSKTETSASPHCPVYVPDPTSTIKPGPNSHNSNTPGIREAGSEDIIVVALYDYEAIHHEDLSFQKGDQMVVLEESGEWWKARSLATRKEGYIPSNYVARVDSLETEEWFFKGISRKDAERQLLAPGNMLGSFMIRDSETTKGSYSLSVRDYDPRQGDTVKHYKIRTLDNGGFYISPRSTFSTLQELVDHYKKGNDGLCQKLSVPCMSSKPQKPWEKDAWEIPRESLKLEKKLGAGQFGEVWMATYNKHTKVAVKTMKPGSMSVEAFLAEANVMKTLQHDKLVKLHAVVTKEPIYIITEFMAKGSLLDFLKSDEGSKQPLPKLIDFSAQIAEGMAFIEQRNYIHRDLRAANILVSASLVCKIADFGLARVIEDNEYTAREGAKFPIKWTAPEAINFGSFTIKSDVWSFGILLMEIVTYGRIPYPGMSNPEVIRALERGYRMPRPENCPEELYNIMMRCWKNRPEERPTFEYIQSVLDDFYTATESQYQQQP

[7] = target: Tyrosine-protein kinase ABL2 (Homo sapiens, UniProt P42684)
Tyrosine-protein kinase ABL2, sequence (P42684 whole entry): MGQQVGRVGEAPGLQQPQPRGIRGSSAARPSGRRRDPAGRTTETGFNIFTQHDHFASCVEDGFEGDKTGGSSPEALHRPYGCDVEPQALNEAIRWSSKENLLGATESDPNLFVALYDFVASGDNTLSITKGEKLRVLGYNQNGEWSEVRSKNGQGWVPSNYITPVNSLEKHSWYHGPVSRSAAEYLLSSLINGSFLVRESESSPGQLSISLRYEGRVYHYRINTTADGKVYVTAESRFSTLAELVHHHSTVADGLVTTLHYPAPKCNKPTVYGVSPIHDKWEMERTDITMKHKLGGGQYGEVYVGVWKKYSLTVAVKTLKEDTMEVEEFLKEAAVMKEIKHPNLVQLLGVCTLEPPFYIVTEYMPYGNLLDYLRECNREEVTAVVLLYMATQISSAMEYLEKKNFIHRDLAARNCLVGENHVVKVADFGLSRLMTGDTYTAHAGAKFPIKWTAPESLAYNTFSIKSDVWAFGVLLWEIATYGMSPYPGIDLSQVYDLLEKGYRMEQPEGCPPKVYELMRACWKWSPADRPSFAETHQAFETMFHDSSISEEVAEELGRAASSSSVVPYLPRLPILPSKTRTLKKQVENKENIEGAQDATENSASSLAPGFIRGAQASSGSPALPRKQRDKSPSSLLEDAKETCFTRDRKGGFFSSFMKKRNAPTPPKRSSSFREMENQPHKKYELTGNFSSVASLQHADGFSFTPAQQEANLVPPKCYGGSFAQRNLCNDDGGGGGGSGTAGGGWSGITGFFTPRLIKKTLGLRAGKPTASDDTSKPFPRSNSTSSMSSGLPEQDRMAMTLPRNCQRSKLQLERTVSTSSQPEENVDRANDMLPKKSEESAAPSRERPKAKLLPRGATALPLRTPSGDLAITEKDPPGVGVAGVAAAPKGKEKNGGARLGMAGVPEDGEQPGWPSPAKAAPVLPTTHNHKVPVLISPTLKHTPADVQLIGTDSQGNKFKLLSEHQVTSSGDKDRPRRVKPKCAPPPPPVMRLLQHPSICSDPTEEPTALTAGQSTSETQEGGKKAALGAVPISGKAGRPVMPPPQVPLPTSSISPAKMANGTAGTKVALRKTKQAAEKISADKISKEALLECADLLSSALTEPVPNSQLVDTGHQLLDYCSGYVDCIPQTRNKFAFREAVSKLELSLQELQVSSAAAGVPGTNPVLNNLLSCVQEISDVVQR

[8] = target: Protein kinase C delta type (Homo sapiens, UniProt Q05655)
Protein kinase C delta type, sequence (Q05655 whole entry): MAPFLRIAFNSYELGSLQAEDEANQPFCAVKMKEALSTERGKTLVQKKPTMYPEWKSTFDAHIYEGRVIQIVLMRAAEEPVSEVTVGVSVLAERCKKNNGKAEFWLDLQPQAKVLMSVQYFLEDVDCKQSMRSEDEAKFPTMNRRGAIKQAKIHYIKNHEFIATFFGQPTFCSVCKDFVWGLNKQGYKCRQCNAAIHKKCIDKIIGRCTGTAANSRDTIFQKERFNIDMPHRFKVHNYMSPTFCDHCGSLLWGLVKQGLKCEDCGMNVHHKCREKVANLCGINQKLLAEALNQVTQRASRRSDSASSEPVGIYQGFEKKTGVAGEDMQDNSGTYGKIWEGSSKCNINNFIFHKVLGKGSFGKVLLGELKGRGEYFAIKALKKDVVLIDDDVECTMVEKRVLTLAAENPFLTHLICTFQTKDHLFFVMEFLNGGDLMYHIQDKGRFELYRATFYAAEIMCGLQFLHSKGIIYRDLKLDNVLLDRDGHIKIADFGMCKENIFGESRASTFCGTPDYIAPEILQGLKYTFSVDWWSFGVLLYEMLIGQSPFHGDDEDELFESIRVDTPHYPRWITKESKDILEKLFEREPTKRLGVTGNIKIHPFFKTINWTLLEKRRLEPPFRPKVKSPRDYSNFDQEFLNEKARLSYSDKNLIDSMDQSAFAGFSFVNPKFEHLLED

[9] = target: T3, Dynamin-like GTPase OPA1, mitochondrial (Homo sapiens, UniProt O60313)
T3 sequence (O60313 whole entry): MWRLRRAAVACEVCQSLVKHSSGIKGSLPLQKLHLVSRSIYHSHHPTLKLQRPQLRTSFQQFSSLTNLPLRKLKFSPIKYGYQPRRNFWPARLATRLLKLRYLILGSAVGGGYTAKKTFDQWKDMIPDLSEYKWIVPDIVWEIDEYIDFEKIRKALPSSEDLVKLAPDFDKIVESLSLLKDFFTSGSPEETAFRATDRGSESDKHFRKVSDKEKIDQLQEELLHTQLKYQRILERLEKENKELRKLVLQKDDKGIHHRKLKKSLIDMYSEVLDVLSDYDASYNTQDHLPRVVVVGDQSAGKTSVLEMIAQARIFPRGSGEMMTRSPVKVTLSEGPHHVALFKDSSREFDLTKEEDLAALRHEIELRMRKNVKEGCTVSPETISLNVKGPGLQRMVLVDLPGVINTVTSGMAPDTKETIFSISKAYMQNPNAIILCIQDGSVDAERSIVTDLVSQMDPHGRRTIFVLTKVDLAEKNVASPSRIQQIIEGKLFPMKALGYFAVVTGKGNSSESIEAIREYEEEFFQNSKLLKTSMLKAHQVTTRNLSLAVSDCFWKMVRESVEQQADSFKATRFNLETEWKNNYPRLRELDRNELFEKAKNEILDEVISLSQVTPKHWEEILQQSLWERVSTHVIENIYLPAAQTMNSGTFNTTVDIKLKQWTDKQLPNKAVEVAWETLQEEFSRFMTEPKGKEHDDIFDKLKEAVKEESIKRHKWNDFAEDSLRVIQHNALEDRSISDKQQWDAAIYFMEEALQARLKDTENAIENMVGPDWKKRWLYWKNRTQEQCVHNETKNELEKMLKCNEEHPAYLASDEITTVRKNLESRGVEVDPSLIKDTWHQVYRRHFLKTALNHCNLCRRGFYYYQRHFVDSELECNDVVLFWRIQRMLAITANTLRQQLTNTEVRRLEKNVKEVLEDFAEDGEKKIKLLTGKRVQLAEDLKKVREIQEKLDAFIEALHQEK

[10] = target: Casein kinase I isoform alpha (Homo sapiens, UniProt P48729)
Casein kinase I isoform alpha, sequence (P48729 whole entry, canonical isoform): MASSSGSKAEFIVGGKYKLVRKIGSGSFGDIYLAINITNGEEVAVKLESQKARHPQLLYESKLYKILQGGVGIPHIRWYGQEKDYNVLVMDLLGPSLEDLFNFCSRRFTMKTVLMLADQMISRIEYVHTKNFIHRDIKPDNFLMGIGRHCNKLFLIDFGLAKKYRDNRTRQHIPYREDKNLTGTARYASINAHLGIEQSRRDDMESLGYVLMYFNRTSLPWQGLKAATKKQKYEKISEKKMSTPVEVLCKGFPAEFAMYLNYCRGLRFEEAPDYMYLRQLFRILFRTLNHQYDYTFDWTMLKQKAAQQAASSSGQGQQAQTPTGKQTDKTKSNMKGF
Note: in the data inactive means no Kd found up to 30 µM.

Row | Kd (Activin receptor type-1B) | Kd [1] | Kd [2] | Kd (Wee1-like protein kinase) | Kd [3] | Kd [4] | Kd [5] | Kd [6] | Kd [7] | Kd [8] | Kd [9] | Kd [10] | SMILES
1 | > 30 µM (inactive) | > 30 µM (inactive) | > 30 µM (inactive) | > 30 µM (inactive) | > 30 µM (inactive) | > 30 µM (inactive) | > 30 µM (inactive) | > 30 µM (inactive) | > 30 µM (inactive) | > 30 µM (inactive) | > 30 µM (inactive) | > 30 µM (inactive) | Cc1ccc(C(=O)Nc2ccc(Oc3cc4cnn(C)c4cc3-c3cn[nH]c3)c(F)c2)c(=O)n1-c1ccc(F)cc1 [MERESTINIB]
2 | > 30 µM (inactive) | > 30 µM (inactive) | > 30 µM (inactive) | > 30 µM (inactive) | 0.34 µM (active) | > 30 µM (inactive) | > 30 µM (inactive) | > 30 µM (inactive) | > 30 µM (inactive) | > 30 µM (inactive) | > 30 µM (inactive) | 5.16 µM (active) | c1cc(OCCN2CCCCC2)cc(-c2n[nH]c3ccc(-c4nc[nH]n4)cc23)c1 [CC-401]
3 | > 30 µM (inactive) | > 30 µM (inactive) | > 30 µM (inactive) | > 30 µM (inactive) | > 30 µM (inactive) | > 30 µM (inactive) | > 30 µM (inactive) | > 30 µM (inactive) | > 30 µM (inactive) | > 30 µM (inactive) | > 30 µM (inactive) | > 30 µM (inactive) | O=C(NOC[C@H](O)CO)c1ccc(F)c(F)c1Nc1ccc(I)cc1F [MIRDAMETINIB]
4 | > 30 µM (inactive) | > 30 µM (inactive) | > 30 µM (inactive) | > 30 µM (inactive) | > 30 µM (inactive) | > 30 µM (inactive) | > 30 µM (inactive) | > 30 µM (inactive) | > 30 µM (inactive) | > 30 µM (inactive) | > 30 µM (inactive) | > 30 µM (inactive) | C[C@@H]1COC(Nc2ccc3ncnc(Nc4ccc(OCc5nccs5)c(Cl)c4)c3c2)=N1 [VARLITINIB]
5 | > 30 µM (inactive) | 1.1 µM (active) | > 30 µM (inactive) | > 30 µM (inactive) | > 30 µM (inactive) | > 30 µM (inactive) | > 30 µM (inactive) | 1.1 µM (active) | 0.918 µM (active) | > 30 µM (inactive) | > 30 µM (inactive) | > 30 µM (inactive) | COc1cc2nccc(Oc3ccc(NC(=O)C4(C(=O)Nc5ccc(F)cc5)CC4)cc3)c2cc1OC [CABOZANTINIB]
6 | > 30 µM (inactive) | > 30 µM (inactive) | > 30 µM (inactive) | > 30 µM (inactive) | > 30 µM (inactive) | > 30 µM (inactive) | > 30 µM (inactive) | > 30 µM (inactive) | > 30 µM (inactive) | > 30 µM (inactive) | > 30 µM (inactive) | > 30 µM (inactive) | CNC(=O)c1cccc(-c2ccc3c(N4CCOC[C@@H]4C)nc(N4CCOC[C@@H]4C)nc3n2)c1 [VISTUSERTIB]
7 | > 30 µM (inactive) | > 30 µM (inactive) | > 30 µM (inactive) | > 30 µM (inactive) | > 30 µM (inactive) | > 30 µM (inactive) | > 30 µM (inactive) | > 30 µM (inactive) | > 30 µM (inactive) | > 30 µM (inactive) | > 30 µM (inactive) | > 30 µM (inactive) | S=C(NCc1ccc2c(c1)OCO2)N1CCN(c2ncnc3c2oc2ccccc23)CC1 [AMUVATINIB]
8 | > 30 µM (inactive) | > 30 µM (inactive) | > 30 µM (inactive) | > 30 µM (inactive) | > 30 µM (inactive) | > 30 µM (inactive) | > 30 µM (inactive) | > 30 µM (inactive) | > 30 µM (inactive) | > 30 µM (inactive) | > 30 µM (inactive) | > 30 µM (inactive) | COc1ccc(-c2ccc3ncc4c(c3c2)n(-c2ccc(N3CCNCC3)c(C(F)(F)F)c2)c(=O)n4C)cn1 [BGT-226 FREE BASE]
9 | > 30 µM (inactive) | > 30 µM (inactive) | > 30 µM (inactive) | > 30 µM (inactive) | > 30 µM (inactive) | > 30 µM (inactive) | > 30 µM (inactive) | > 30 µM (inactive) | > 30 µM (inactive) | > 30 µM (inactive) | > 30 µM (inactive) | > 30 µM (inactive) | CC(C)(O)CC(=O)NCCn1ccc2ncnc(Nc3ccc(Oc4cccc(C(F)(F)F)c4)c(Cl)c3)c21 [TAK-285]
10 | > 30 µM (inactive) | > 30 µM (inactive) | > 30 µM (inactive) | > 30 µM (inactive) | > 30 µM (inactive) | > 30 µM (inactive) | > 30 µM (inactive) | > 30 µM (inactive) | > 30 µM (inactive) | > 30 µM (inactive) | > 30 µM (inactive) | > 30 µM (inactive) | COc1cc2ncnc3c2cc1OCCCCCN(C)Cc1ccc(Br)cc1N3 [JNJ-26483327]
11 | > 30 µM (inactive) | > 30 µM (inactive) | > 30 µM (inactive) | > 30 µM (inactive) | > 30 µM (inactive) | > 30 µM (inactive) | > 30 µM (inactive) | > 30 µM (inactive) | > 30 µM (inactive) | > 30 µM (inactive) | > 30 µM (inactive) | > 30 µM (inactive) | O=C(Nc1ccc(OC(F)(F)F)cc1)c1sccc1NCc1ccnc2ccccc12 [OSI-930]

Row | SMILES | Kd (Activin receptor type-1B) | Kd [1] | Kd [2] | Kd (Wee1-like protein kinase) | Kd [3] | Kd [4] | Kd [5] | Kd [6] | Kd [7] | Kd [8] | Kd [9] | Kd [10]
12 | C=CC(=O)Nc1cc(Nc2nccc(-c3cn(C)c4ccccc34)n2)c(OC)cc1N(C)CCN(C)C [OSIMERTINIB] | > 30 µM (inactive) | > 30 µM (inactive) | > 30 µM (inactive) | > 30 µM (inactive) | > 30 µM (inactive) | > 30 µM (inactive) | > 30 µM (inactive) | > 30 µM (inactive) | > 30 µM (inactive) | > 30 µM (inactive) | > 30 µM (inactive) | > 30 µM (inactive)
13 | Cc1c(Cn2c(C)nc3c(C(=O)O)cc(N4CCOCC4)cc32)cccc1C(F)(F)F [GSK-2636771] | > 30 µM (inactive) | > 30 µM (inactive) | > 30 µM (inactive) | > 30 µM (inactive) | > 30 µM (inactive) | > 30 µM (inactive) | > 30 µM (inactive) | > 30 µM (inactive) | > 30 µM (inactive) | > 30 µM (inactive) | > 30 µM (inactive) | > 30 µM (inactive)
